Data: patent US11981658B2, “Substituted aminopyridine compounds as EGFR inhibitors” (YUHAN CORPORATION, priority 2021, dated 2024)
Like-named read-outs stand apart in the source and are kept apart here.

Legend:
EGFR Del19/C797S = EGFR Del19/C797S (Homo sapiens, UniProt P00533, C797S/DEL746-750); assay: Biochemical EGFR kinase inhibition assay (Lance Ultra TR-FRET), double mutant del19/C797S
Outline: (§1)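 In this biochemical assay, phosphorylation after a one-hour room-temperature reaction was detected with europium-labelled anti-phosphopeptide antibody at 2 nM final concentration.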

EGFR Del19/T790M/C797S = EGFR Del19/T790M/C797S (Homo sapiens, UniProt P00533, C797S/DEL746-750/T790M); assay: Biochemical EGFR kinase inhibition assay (Lance Ultra TR-FRET), triple mutant del19/T790M/C797S
Outline: as §1

EGFR wildtype (WT) = EGFR wildtype (WT) (Homo sapiens, UniProt P00533); assay: Biochemical EGFR kinase inhibition assay (Lance Ultra TR-FRET), wildtype
Outline: as §1

EGFR L858R/T790M/C797S = EGFR L858R/T790M/C797S (Homo sapiens, UniProt P00533, C797S/L858R/T790M); assay: Biochemical EGFR kinase inhibition assay (Lance Ultra TR-FRET), triple mutant L858R/T790M/C797S
Outline: as §1

EGFR L858R/C797S = EGFR L858R/C797S (Homo sapiens, UniProt P00533, C797S/L858R); assay: Biochemical EGFR kinase inhibition assay (Lance Ultra TR-FRET), double mutant L858R/C797S
Outline: as §1

[1] = IC50 Del19/C797S (nM), 100 μM ATP
[2] = Km ATP, read-out: IC50 Del19/C797S (nM), Km ATP
[3] = IC50 Del19/T790M/C797S (nM), 100 μM ATP
[4] = Km ATP, read-out: IC50 Del19/T790M/C797S (nM), Km ATP
[5] = Km ATP, read-out: IC50 WT (nM), Km ATP
[6] = IC50 L858R/T790M/C797S (nM), 100 μM ATP
[7] = Km ATP, read-out: IC50 L858R/T790M/C797S (nM), Km ATP
[8] = IC50 L858R/C797S (nM), 100 μM ATP
[9] = Km ATP, read-out: IC50 L858R/C797S (nM), Km ATP

Sequence of EGFR wildtype (WT) (P00533 25-1210): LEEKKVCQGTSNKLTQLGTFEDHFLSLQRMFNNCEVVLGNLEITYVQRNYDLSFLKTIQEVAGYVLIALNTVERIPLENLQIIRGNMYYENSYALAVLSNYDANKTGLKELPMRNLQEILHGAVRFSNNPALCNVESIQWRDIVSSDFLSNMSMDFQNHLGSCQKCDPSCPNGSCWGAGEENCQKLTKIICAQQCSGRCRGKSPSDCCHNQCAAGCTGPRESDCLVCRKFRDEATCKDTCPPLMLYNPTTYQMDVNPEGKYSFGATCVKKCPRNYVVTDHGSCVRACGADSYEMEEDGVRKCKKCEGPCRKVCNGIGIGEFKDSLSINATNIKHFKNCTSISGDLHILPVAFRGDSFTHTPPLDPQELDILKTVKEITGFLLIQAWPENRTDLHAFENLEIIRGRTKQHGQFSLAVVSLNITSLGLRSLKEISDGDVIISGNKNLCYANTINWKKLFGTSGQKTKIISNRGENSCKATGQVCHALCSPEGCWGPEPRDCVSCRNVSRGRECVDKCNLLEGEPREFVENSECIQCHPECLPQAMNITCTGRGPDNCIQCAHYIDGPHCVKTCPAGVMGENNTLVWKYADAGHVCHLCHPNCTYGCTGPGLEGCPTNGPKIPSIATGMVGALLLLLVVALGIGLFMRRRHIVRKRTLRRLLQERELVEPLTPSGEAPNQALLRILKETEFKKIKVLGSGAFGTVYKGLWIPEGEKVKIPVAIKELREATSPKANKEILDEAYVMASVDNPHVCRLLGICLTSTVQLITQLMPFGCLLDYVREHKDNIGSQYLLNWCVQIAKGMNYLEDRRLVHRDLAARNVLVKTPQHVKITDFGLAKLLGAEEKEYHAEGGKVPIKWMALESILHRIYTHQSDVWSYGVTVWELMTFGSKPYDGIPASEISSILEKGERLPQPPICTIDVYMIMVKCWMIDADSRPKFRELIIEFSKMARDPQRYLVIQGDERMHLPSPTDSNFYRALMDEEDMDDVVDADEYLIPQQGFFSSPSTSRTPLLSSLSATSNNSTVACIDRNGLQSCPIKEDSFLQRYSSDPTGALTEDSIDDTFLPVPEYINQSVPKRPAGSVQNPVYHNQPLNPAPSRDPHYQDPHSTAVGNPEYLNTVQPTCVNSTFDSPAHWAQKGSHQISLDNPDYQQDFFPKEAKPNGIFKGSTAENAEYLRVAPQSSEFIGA
Sequence of EGFR Del19/C797S (P00533 with tags, fused parts or gaps DEL746-750/C797S): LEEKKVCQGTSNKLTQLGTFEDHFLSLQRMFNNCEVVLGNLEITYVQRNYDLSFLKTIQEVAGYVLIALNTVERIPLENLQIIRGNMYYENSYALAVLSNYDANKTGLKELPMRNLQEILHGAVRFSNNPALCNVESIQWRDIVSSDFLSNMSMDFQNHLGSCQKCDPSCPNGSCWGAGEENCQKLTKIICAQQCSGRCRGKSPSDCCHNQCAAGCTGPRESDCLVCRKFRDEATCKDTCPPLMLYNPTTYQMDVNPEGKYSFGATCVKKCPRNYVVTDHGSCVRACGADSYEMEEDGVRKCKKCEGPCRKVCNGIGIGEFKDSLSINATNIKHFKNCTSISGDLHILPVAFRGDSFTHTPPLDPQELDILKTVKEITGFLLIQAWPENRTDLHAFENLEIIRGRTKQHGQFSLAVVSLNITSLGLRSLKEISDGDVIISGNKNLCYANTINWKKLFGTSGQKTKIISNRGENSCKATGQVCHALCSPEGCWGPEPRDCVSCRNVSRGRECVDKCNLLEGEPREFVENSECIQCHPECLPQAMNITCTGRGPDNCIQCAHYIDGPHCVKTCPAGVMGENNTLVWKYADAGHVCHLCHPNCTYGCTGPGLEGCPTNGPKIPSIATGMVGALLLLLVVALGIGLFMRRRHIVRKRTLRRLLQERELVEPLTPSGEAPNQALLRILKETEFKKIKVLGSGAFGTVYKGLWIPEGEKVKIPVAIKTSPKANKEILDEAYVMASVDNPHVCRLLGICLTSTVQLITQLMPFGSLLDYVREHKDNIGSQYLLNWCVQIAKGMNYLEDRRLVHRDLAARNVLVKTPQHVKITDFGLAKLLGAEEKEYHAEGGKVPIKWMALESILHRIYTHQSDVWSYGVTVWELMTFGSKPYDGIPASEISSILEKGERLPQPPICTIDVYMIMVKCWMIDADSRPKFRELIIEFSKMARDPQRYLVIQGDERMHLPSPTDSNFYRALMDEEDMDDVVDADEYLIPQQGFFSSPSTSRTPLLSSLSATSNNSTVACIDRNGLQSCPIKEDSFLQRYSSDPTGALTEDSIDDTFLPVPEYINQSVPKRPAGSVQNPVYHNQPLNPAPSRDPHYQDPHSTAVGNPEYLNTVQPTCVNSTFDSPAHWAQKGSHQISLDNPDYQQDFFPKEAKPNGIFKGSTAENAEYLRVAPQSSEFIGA
Sequence of EGFR Del19/T790M/C797S (P00533 with tags, fused parts or gaps DEL746-750/T790M/C797S): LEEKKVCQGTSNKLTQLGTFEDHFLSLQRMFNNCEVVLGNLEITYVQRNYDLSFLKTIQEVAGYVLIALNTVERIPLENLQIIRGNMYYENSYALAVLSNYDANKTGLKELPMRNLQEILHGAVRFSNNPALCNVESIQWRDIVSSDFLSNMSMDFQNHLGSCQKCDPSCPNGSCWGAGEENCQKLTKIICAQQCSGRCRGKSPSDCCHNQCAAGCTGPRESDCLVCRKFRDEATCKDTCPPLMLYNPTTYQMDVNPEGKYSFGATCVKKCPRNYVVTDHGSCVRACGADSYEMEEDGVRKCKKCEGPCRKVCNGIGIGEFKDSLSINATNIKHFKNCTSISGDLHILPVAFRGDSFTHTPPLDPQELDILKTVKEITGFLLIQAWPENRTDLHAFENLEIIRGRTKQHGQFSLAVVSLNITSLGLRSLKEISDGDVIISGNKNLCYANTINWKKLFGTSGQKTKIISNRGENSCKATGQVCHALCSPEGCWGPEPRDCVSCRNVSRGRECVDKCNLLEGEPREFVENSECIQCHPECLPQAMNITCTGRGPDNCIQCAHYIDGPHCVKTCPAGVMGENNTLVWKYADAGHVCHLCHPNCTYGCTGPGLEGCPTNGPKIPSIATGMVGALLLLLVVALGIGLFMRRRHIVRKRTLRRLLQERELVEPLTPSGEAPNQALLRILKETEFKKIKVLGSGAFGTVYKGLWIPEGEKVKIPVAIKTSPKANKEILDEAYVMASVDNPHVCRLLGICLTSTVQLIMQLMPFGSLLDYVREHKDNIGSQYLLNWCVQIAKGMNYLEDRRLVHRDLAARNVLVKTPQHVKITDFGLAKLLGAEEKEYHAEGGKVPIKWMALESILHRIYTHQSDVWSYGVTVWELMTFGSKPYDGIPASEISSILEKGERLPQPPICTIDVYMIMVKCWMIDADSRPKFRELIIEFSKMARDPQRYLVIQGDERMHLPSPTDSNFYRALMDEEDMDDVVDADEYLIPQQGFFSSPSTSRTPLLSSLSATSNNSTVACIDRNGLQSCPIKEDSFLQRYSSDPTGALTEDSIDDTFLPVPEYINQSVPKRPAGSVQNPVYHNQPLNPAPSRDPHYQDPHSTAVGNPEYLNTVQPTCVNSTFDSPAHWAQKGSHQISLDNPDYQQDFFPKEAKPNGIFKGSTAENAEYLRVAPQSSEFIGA
Sequence of EGFR L858R/C797S (P00533 25-1210 C797S/L858R): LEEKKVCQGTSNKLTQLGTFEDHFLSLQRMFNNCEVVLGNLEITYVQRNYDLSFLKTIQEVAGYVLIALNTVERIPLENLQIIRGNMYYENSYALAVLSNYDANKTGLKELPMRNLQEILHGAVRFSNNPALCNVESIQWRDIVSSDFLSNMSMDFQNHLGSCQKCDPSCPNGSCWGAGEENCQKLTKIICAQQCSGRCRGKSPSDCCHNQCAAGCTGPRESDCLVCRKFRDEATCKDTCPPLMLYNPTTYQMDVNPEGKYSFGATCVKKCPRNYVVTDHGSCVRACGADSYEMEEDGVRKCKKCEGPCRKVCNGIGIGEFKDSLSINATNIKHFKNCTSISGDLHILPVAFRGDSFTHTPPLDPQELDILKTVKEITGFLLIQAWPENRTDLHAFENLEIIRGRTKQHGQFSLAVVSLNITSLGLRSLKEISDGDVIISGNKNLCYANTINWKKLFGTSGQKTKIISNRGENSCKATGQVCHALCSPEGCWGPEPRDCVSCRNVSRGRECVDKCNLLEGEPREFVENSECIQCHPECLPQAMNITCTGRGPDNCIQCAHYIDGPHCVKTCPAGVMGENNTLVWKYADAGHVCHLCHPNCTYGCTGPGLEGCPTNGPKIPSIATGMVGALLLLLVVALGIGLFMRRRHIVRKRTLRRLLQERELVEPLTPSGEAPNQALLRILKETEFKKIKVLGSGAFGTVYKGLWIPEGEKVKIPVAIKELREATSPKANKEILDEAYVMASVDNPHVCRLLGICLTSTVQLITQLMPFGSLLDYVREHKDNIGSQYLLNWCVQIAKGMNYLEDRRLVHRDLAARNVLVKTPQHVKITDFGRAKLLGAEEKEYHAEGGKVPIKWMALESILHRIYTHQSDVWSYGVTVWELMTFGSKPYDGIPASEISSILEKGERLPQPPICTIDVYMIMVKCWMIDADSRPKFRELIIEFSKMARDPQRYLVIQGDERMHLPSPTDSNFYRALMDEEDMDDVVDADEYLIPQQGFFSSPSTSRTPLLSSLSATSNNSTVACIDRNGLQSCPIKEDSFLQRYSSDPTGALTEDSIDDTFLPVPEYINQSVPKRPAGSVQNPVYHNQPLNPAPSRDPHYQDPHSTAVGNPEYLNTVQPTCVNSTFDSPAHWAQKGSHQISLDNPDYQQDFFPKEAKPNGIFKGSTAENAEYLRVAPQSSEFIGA

| SMILES | IC50 (EGFR Del19/C797S; [1]) [nM] | IC50 (EGFR Del19/C797S; [2]) [nM] | IC50 (EGFR Del19/T790M/C797S; [3]) [nM] | IC50 (EGFR Del19/T790M/C797S; [4]) [nM] | IC50 (EGFR wildtype (WT); IC50 WT (nM), 100 μM ATP) [nM] | IC50 (EGFR wildtype (WT); [5]) [nM] | IC50 (EGFR L858R/T790M/C797S; [6]) [nM] | IC50 (EGFR L858R/T790M/C797S; [7]) [nM] | IC50 (EGFR L858R/C797S; [8]) [nM] | IC50 (EGFR L858R/C797S; [9]) [nM] |
| --- | --- | --- | --- | --- | --- | --- | --- | --- | --- | --- |
| CC1(C#Cc2cnc(Nc3ccnc(-c4cnn(S(=O)(=O)C5CC5)c4)n3)cc2N2CCC(C)(CO)CC2)CC1 [Example 358, (1-(2-((2-(1-(Cyclopropylsulfonyl)-1H-pyrazol-4-yl)pyrimidin-4-yl)amino)-5-((1-methylcyclopropyl)ethynyl)pyridin-4-yl)-4-methylpiperidin-4-yl)methanol] | 3.7 | 1.9 | 1.7 | 1.2 | 6280 | 22.9 | 1.6 | 0.7 | 30.2 | 3.8 |
| CC1(C#Cc2cnc(Nc3ccnc(-c4cnn(S(=O)(=O)C5CC5)c4)n3)cc2N[C@H]2CC[C@@H](O)CC2)CC1 [Example 359, (1s,4s)-4-((2-((2-(1-(Cyclopropylsulfonyl)-1H-pyrazol.-4-yl)pyrimidin-4-yl)amino)-5-((1-methylcyclopropyl)ethynyl)pyridin-4-yl)amino)cyclohexan-1-ol] | 2.6 | 2.2 | 1.6 | 0.9 | > 10000 | 26.7 | 1.5 | 0.4 | 55.1 | 3.6 |
| CN1CCN(Cc2ccc(C#Cc3cnc(Nc4ccnc(-c5cnn(S(=O)(=O)C6CC6)c5)n4)cc3N[C@H]3CC[C@@H](CO)CC3)cc2)CC1 [Example 360, ((1s,4s)-4-((2-((2-(1-(Cyclopropylsulfonyl)-1H-pyrazol-4-yl)pyrimidin-4-yl)amino)-5-((4-((4-methylpiperazin-1-yl)methyl)phenyl)ethynyl)pyridin-4-yl)amino)cyclohexyl)methanol] | 2.7 | 2.3 | 1.1 | 0.8 | 1130 | 3.8 | 0.9 | 0.3 | 7.7 | 2.5 |
| CN1CCN(Cc2ccc(C#Cc3cnc(Nc4ccnc(-c5cnn(S(=O)(=O)C6CC6)c5)n4)cc3NC[C@H]3CC[C@H](O)CC3)cc2)CC1 [Example 361, (1 r,4r)-4-(((2-((2-(1-(Cyclopropylsulfonyl)-1H-pyrazol-4-yl)pyrimidin-4-yl)amino)-5-((4-((4-methylpiperazin-1-yl)methyl)phenyl)ethynyl)pyridin-4-yl)amino)methyl)cyclohexan-1-ol] | 4.3 |  | 0.7 |  | > 10000 |  | 1.5 |  | 468 |  |
| CN1CCN(Cc2ccc(C#Cc3cnc(Nc4ccnc(-c5cnn(S(=O)(=O)C6CC6)c5)n4)cc3N[C@H]3CC[C@]4(CCC(=O)N4)CC3)cc2)CC1 [Example 362, (5s,8s)-8-((2-((2-(1-(Cyclopropylsulfonyl)-1H-pyrazol-4-yl)pyrimidin-4-yl)amino)-5-((4-((4-methylpiperazin-1-yl)methyl)phenyl)ethynyl)pyridin-4-yl)amino)-1-azaspiro[4.5]decan-2-one] | 1.7 | 1.1 | 0.7 | 0.5 | 4900 | 10.7 | 0.6 | 0.1 | 3.2 | 0.9 |
| CN1CCN(Cc2ccc(C#Cc3cnc(Nc4ccnc(-c5cnn(S(=O)(=O)C6CC6)c5)n4)cc3NC[C@H]3CC[C@](C)(O)CC3)cc2)CC1 [Example 363, (1r,4r)-4-(((2-((2-(1-(Cyclopropylsulfonyl)-1H-pyrazol-4-yl)pyrimidin-4-yl)amino)-5-((4-((4-methylpiperazin-1-yl)methyl)phenyl)ethynyl)pyridin-4-yl)amino)methyl)-1-methylcyclohexan-1-ol] | 8.2 |  | 1.2 |  | > 10000 |  | 2.4 |  | 94.9 |  |
| CC1(O)CCN(c2cc(Nc3ccnc(-c4cnn(S(=O)(=O)C5CC5)c4)n3)ncc2C#Cc2ncc(CN3CCOCC3)cn2)CC1 [Example 364, 1-(2-((2-(1-(Cyclopropylsulfonyl)-1H-pyrazol-4-yl)pyrimidin-4-yl)amino)-5-((5-(morpholinomethyl)pyrimidin-2-yl)ethynyl)pyridin-4-yl)-4-methylpiperidin-4-ol] | 1.3 | 1.4 | 0.3 | 0.2 | 2530 | 7.5 | 0.6 | 0.1 | 12.9 | 2.1 |
| COC1(O)CCN(c2cc(Nc3ccnc(-c4cnn(S(=O)(=O)C5CC5)c4)n3)ncc2C#Cc2ncc(CN3CCOCC3)cn2)CC1 [Example 365, 1-(2-((2-(1-(Cyclopropylsulfonyl)-1H-pyrazol-4-yl)pyrimidin-4-yl)amino)-5-((5-(morpholinomethyl)pyrimidin-2-yl)ethynyl)pyridin-4-yl)-4-methoxypiperidin-4-ol] | 3.5 | 3.3 | 0.7 | 0.4 | > 10000 | 10.5 | 1.3 | 0.1 | 46.6 | 3.9 |
| O=S(=O)(C1CC1)n1cc(-c2nccc(Nc3cc(N4CCC5(CCCO5)CC4)c(C#Cc4ncc(CN5CCOCC5)cn4)cn3)n2)cn1 [Example 366, 2-(1-(Cyclopropylsulfonyl)-1H-pyrazol-4-yl)-N-(5-((5-(morpholinomethyl)pyrimidin-2-yl)ethynyl)-4-(1-oxa-8-azaspiro[4.5]decan-8-yl)pyridin-2-yl)pyrimidin-4-amine] | 4.4 | 2.5 | 0.5 | 0.3 | > 10000 | 7.2 | 1.1 | 0.1 | 16.7 | 2.9 |
| O=S(=O)(C1CC1)n1cc(-c2nccc(Nc3cc(N4CCC5(CCO5)CC4)c(C#Cc4ncc(CN5CCOCC5)cn4)cn3)n2)cn1 [Example 367, 2-(1-(Cyclopropylsulfonyl)-1H-pyrazol-4-yl)-N-(5-((5-(morpholinomethyl)pyrimidin-2-yl)ethynyl)-4-(1-oxa-7-azaspiro[3.5]nonan-7-yl)pyridin-2-yl)pyrimidin-4-amine] | 3.5 | 1.6 | 0.4 | 0.3 | > 10000 | 7.6 | 1.2 | 0.1 | 25.6 | 3.9 |
| CN1CCN(Cc2ccc(C#Cc3cnc(Nc4ccnc(-c5cnn(S(=O)(=O)C6CC6)c5)n4)cc3N3CCC(C)(O)CC3)cc2)CC1 [Example 368, 1-(2-((2-(1-(Cyclopropylsulfonyl)-1H-pyrazol-4-yl)pyrimidin-4-yl)amino)-5-((4-((4-methylpiperazin-1-yl)methyl)phenyl)ethynyl)pyridin-4-yl)-4-methylpiperidin-4-ol] | 0.7 | 0.6 | 0.4 | 0.4 | 197 | 0.8 | 0.2 | 0.1 | 1.4 | 0.7 |
| COC1(O)CCN(c2cc(Nc3ccnc(-c4cnn(S(=O)(=O)C5CC5)c4)n3)ncc2C#Cc2ccc(CN3CCN(C)CC3)cc2)CC1 [Example 369, 1-(2-((2-(1-(Cyclopropylsulfonyl)-1H-pyrazol-4-yl)pyrimidin-4-yl)amino)-5-((4-((4-methylpiperazin-1-yl)methyl)phenyl)ethynyl)pyridin-4-yl)-4-methoxypiperidin-4-ol] | 2 | 1.9 | 0.4 | 0.9 | 1200 | 3.1 | 0.4 | 0.3 | 6.4 | 2.4 |
| CN1CCN(Cc2ccc(C#Cc3cnc(Nc4ccnc(-c5cnn(S(=O)(=O)C6CC6)c5)n4)cc3N3CCC4(CCO4)CC3)cc2)CC1 [Example 370, 2-(1-(Cyclopropylsulfonyl)-1H-pyrazol-4-yl)-N-(5-((4-((4-methylpiperazin-1-yl)methyl)phenyl)ethynyl)-4-(1-oxa-7-azaspiro[3.5]nonan-7-yl)pyridin-2-yl)pyrimidin-4-amine] | 0.9 | 0.9 | 0.3 | 0.3 | > 10000 | 1.9 | 0.8 | 0.1 | 5.1 | 1.4 |
| COC1(O)CCN(c2cc(Nc3ccnc(-c4cnn(S(=O)(=O)C5CC5)c4)n3)ncc2C#CC2CCN(C)C2)CC1 (stereo not shown) [Example 371, 1-(2-((2-(1-(Cyclopropylsulfonyl)-1H-pyrazol-4-yl)pyrimidin-4-yl)amino)-5-((1-methylpyrrolidin-3-yl)ethynyl)pyridin-4-yl)-4-methoxypiperidin-4-ol] | 2.5 | 1.5 | 0.3 | 0.3 | 3730 | 9.4 | 0.4 | 0.1 | 53.2 | 3.3 |
